Among the data in paper PMC6804295, “Design, Synthesis, and Biological Evaluation of Novel Thienopyrimidine Derivatives as PI3Kα Inhibitors” (Molecules, 2019) are IC50 and melting point values, retold here.

Data set [1] has as its system A549 (human lung cancer). Briefly: MTT cytotoxicity assay, A549 cells. The format is cell-based. Particulars: 72 h, >50 = no inhibitory effect at 50 μM. As for the experimental part: (§1) The cancer cell lines were cultured in minimum essential medium (MEM) supplement with 10% fetal bovine serum (FBS). Approximately, 4 × 10 ^3 cells, suspended in MEM medium, were plated onto each well of a 96-well plate and incubated in 5% CO2 at 37 °C for 24 h. The test compounds at the indicated final concentrations were added to the culture medium, and cell cultures continued for 72 h. Fresh MTT was added to each well at a terminal concentration of 5 µg/mL and incubated with cells at 37 °C for 4 h. The formazan crystals were dissolved in 100 µL of DMSO in each well, and the absorbency at 492 nm (for absorbance of MTT formazan) and 630 nm (for the reference wavelength) was measured with an enzyme linked immunosorbent assay (ELISA) reader (MR-96A Mindray Elisa Microplate Reader, Guangzhou, China). All compounds were tested three times in each of the cell lines. The results expressed as inhibition rates or IC50 was the averages of […] and calculated using the Bacus Laboratories Inc. Slide Scanner (Bliss) software (the Bacus Laboratories Inc. Slide Scanner (BLISS) system, Lombard, IL, USA).
(Tetrazolium dyes change colour on reduction, which living cells bring about.)

The subject of data set [2] is PC-3 (human prostate cancer). Briefly: MTT cytotoxicity assay, PC-3 cells. The format is cell-based. As to conditions: >50 = no inhibitory effect at 50 μM. How it is done:
as §1

The target in data set [3] is PI3Kα (Homo sapiens, UniProt P42336). Briefly: PI3Kα Kinase-Glo Luminescent Kinase Assay. The data set is classed as biochemical. Particulars: 1 µM ATP, 60 min. For orientation: Kinase-Glo reads ATP consumption through a luciferase reaction.
Data set [4] concerns HepG2 (human hepatoma). Description: MTT cytotoxicity assay, HepG2 cells. The format is cell-based. Particulars: >50 = no inhibitory effect at 50 μM. As for the experimental part: as §1
The test system of data set [5] is MCF-7 (human breast cancer). Briefly: MTT cytotoxicity assay, MCF-7 cells. The data set is classed as cell-based. As to conditions: >50 = no inhibitory effect at 50 μM. As for the experimental part:
as §1

In data set [6] the target is mTOR (Homo sapiens, UniProt P42345). Description: mTOR Kinase-Glo Luminescent Kinase Assay. The data set is classed as biochemical. Particulars: 10 µM ATP, 60 min.

Where only a bound is given, the exact number is not on record here.

PI3Kα, sequence (P42336 whole entry): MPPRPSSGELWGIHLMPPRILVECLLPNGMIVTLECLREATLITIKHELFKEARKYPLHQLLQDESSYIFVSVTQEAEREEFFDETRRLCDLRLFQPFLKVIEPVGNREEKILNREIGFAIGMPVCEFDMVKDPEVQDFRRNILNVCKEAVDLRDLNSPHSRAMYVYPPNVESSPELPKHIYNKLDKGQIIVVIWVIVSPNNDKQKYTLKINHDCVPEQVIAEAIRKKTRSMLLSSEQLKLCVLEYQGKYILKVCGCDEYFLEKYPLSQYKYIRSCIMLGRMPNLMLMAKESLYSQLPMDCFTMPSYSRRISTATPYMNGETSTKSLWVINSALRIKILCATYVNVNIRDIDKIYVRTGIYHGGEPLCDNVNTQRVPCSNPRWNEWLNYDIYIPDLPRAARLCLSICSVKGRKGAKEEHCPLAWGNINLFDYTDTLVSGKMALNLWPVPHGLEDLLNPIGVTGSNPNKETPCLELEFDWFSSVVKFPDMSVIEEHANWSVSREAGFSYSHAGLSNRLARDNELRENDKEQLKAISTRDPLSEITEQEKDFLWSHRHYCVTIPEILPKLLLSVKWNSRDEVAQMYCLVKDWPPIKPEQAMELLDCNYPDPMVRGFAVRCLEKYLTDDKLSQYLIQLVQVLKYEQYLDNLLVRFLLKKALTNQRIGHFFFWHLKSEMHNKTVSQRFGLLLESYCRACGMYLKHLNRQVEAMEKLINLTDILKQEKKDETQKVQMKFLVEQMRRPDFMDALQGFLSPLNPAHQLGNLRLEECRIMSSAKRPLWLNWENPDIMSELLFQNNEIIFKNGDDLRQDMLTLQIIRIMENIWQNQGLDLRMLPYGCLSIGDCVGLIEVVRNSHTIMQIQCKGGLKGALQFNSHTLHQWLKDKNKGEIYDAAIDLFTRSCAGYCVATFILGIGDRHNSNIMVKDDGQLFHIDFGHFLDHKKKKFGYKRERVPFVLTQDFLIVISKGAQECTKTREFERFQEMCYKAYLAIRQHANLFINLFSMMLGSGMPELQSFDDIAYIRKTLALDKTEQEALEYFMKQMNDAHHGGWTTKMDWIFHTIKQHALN
PI3Kα, sequence (P27986 whole entry partner): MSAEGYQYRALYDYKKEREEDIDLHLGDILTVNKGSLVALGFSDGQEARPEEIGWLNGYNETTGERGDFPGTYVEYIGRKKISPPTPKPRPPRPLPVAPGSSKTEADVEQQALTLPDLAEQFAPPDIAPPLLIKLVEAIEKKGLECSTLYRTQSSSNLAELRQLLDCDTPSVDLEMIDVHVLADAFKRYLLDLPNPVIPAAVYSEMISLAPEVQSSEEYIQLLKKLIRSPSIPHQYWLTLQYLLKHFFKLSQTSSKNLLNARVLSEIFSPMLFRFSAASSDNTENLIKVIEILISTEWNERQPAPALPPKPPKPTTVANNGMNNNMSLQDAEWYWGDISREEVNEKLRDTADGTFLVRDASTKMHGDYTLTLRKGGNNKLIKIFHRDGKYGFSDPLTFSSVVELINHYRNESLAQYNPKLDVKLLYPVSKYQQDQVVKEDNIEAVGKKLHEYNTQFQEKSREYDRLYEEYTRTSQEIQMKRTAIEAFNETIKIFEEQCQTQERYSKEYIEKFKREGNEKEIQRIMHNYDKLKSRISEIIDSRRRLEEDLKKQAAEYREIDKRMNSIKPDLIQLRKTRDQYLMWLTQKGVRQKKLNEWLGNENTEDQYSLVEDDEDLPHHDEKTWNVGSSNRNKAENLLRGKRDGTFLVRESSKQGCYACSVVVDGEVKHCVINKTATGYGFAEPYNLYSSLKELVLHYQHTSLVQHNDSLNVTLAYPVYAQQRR

One may read the IC50 as the midpoint of a concentration-inhibition curve. A higher IC50 goes with lower potency. In general, melting point refers to the temperature, or range, at which the solid turns liquid. For `c1ccc(C2=NN(c3nc(N4CCOCC4)c4ccsc4n3)[C@@H](c3ccccc3)C2)cc1` (stereo in doubt) [Compound 9a], the melting point was 202 to 205 °C. In data set [1], the IC50 turned out to be 11.3 ± 1.19 µM. For the same molecule, in data set [2] (72 h), the midpoint of inhibition, the IC50, lay at 12.3 ± 0.96 µM. Also, 14.7 ± 1.32 µM corresponded to half-maximal inhibition in data set [2] (Homo sapiens, PC-3, 72 h) (IC50). For the same molecule, the IC50 in data set [3] was determined as 9.47 ± 0.63 µM. Besides, in data set [4] (72 h), the IC50 amounted to 9.8 ± 0.93 µM. In addition, the IC50 in data set [4] (Homo sapiens, HepG2, 72 h) came out at 12.3 ± 0.96 µM. For the same molecule, half-maximal inhibition in data set [5] (72 h) (IC50) was put at 14.7 ± 1.32 µM. In data set [5] (Homo sapiens, MCF7, 72 h), this molecule returned an IC50 of 9.8 ± 0.93 µM. The midpoint of inhibition in data set [6], the IC50, lay at 39.9 ± 7.6 µM.
The molecule `c1ccc(C2=NN(c3nc(N4CCOCC4)c4sccc4n3)[C@@H](c3ccccc3)C2)cc1` (stereo in doubt) [Compound 15a] came in with a melting point of 131.2 to 132.5 °C. Besides, the IC50 in data set [1] came out at 16.9 ± 1.61 µM. This molecule showed an IC50 in data set [2] (Homo sapiens, PC-3, 72 h) of 15.5 ± 1.21 µM. The IC50 in data set [3] amounted to 25.7 ± 2.33 µM. In data set [4] (Homo sapiens, HepG2, 72 h), this molecule displayed an IC50 of 13.1 ± 1.48 µM. The molecule further displayed an IC50 in data set [5] (Homo sapiens, MCF7, 72 h) of 17 ± 1.68 µM. The IC50 in data set [6] was > 50 µM.
With `Fc1ccc(C2=NN(c3nc(N4CCOCC4)c4ccsc4n3)C(c3ccc(F)cc3)C2)cc1` (stereo not shown) [Compound 9c, 4-(2-(3,5-bis(4-fluorophenyl)-4,5-dihydro-1H-pyrazol-1-yl)thieno[2,3-d]pyrimidin-4-yl)Morpholine], the melting point lay within 225 to 227 °C. Also, in data set [1], the IC50 came out at 24.23 ± 0.15 µM. The molecule also displayed an IC50 in data set [2] (Homo sapiens, PC-3, 72 h) of 18.2 ± 1.55 µM. The molecule also registered an IC50 in data set [4] (Homo sapiens, HepG2, 72 h) of 17.4 ± 0.98 µM. The molecule further showed a half-maximal inhibitory concentration (IC50) in data set [5] (Homo sapiens, MCF7, 72 h) of 22.37 ± 0.17 µM.
For `Fc1ccc(C2=NN(c3nc(N4CCOCC4)c4sccc4n3)C(c3ccc(F)cc3)C2)cc1` (stereo not shown) [Compound 15c, 4-(2-(3,5-bis(4-fluorophenyl)-4,5-dihydro-1H-pyrazol-1-yl)thieno[3,2-d]pyrimidin-4-yl)Morpholine] the same measures were 254.7 to 255.4 °C, 39 ± 3.32 µM, 25.3 ± 2.39 µM, 18.9 ± 1.86 µM and 37.1 ± 2.99 µM.
Regarding `COc1ccc(C2CC(c3ccc(Cl)c(Cl)c3)=NN2c2nc(N3CCOCC3)c3c4c(sc3n2)CCCC4)cc1` (stereo not shown) [Compound 21a, 4-(2-(3-(3,4-dichlorophenyl)-5-(4-methoxyphenyl)-4,5-dihydro-1H-pyrazol-1-yl)-5,6,7,8-tetrahydrobenzo[4,5]thieno[2,3-d]pyrimidin-4-yl)morpholine], the melting point lay within 252 to 253 °C. The molecule further came in with an IC50 in data set [1] of 27.68 ± 0.1 µM. This molecule also displayed an IC50 in data set [2] (Homo sapiens, PC-3, 72 h) of 31.8 ± 0.95 µM. Moreover, the IC50 in data set [4] (Homo sapiens, HepG2, 72 h) turned out to be 32.4 ± 1.84 µM.
Regarding `Cc1ccc(C2CC(c3ccc(Br)cc3)=NN2c2nc(N3CCOCC3)c3c4c(sc3n2)CCCC4)cc1` (stereo not shown) [Compound 21b, 4-(2-(3-(4-bromophenyl)-5-(p-tolyl)-4,5-dihydro-1H-pyrazol-1-yl)-5,6,7,8-tetrahdrobenzo[4,5]thieno[2,3-d]pyrimidin-4-yl)morpholine], the melting point is 243 to 244 °C. This molecule came in with an IC50 in data set [1] of 11.59 ± 0.11 µM. The molecule also displayed an IC50 in data set [2] (Homo sapiens, PC-3, 72 h) of 20.6 ± 0.63 µM. This molecule also came in with a half-inhibitory concentration (IC50) in data set [4] (Homo sapiens, HepG2, 72 h) of 12.4 ± 0.96 µM. Moreover, the IC50 in data set [5] (Homo sapiens, MCF7, 72 h) was 15.3 ± 0.83 µM.
For `c1ccc(C2=NN(c3nc(N4CCOCC4)c4c5c(sc4n3)CCCC5)C(c3ccccc3)C2)cc1` (stereo not shown) [Compound 21c, 4-(2-(3,5-diphenyl-4,5-dihydro-1H-pyrazol-1-yl)-5,6,7,8-tetrahydrobenzo[4,5]thiophene[2,3-d]pyramidin-4-yl)morpholine] the same measures were 212 to 213 °C, 42 ± 1.49 µM, > 50 µM, > 50 µM and > 50 µM.
In the same order, the values of `COc1ccc(C2CC(c3ccc(F)cc3)=NN2c2nc(N3CCOCC3)c3c4c(sc3n2)CCCC4)cc1` (stereo not shown) [Compound 21d, 4-(2-(3-(4-fluorophenyl)-5-(4-methoxyphenyl)-4,5-dihydro-1H-pyrazol-1-yl)-5,6,7,8-tetrahydrobenzo[4,5]thieno[2,3-d]pyrimidin-4-yl)morpholine] are 189 to 193 °C, 17.8 ± 1.1 µM, 25.3 ± 0.75 µM, 23.7 ± 0.11 µM and 29.5 ± 1.87 µM.
In the same order, the values of `Fc1ccc(C2CC(c3ccc(Br)cc3)=NN2c2nc(N3CCOCC3)c3c4c(sc3n2)CCCC4)cc1` (stereo not shown) [Compound 21e, 4-(2-(3-(4-bromophenyl)-5-(4-fluorophenyl)-4,5-dihydro-1H-pyrazol-1-yl)-5,6,7,8-tetrahydrobenzo[4,5]thieno[2,3-d]pyrimidin-4-yl)morpholine] are 272 to 273 °C, > 50 µM, > 50 µM, 38.7 ± 1.72 µM and > 50 µM.
Molecule `Brc1ccc(C2=NN(c3nc(N4CCOCC4)c4c5c(sc4n3)CCCC5)C(c3ccccc3)C2)cc1` (stereo not shown) [Compound 21f, 4-(2-(3-(4-bromophenyl)-5-phenyl-4,5-dihydro-1H-pyrazol-1-yl)-5,6,7,8-tetrahydrobenzo[4,5]thieno[2,3-d]pyrimidin-4-yl)morpholine] gave a melting point of 257 to 259 °C. The IC50 in data set [1] is > 50 µM. In data set [2] (Homo sapiens, PC-3, 72 h), the IC50 was > 50 µM. The IC50 in data set [4] (Homo sapiens, HepG2, 72 h) is > 50 µM. Moreover, the IC50 in data set [5] (Homo sapiens, MCF7, 72 h) was > 50 µM.
Turning to `Clc1ccc(C2=NN(c3nc(N4CCOCC4)c4c5c(sc4n3)CCCC5)C(c3ccc(Br)cc3)C2)cc1Cl` (stereo not shown) [Compound 21g, 4-(2-(5-(4-bromophenyl)-3-(3,4-dichlorophenyl)-4,5-dihydro-1H-pyrazol-1-yl)-5,6,7,8-tetrahydrobenzo[4,5]thieno[2,3-d]pyrimidin-4-yl)morpholine], the melting point lay within 231 to 234 °C. For the same molecule, in data set [1], the half-inhibitory concentration (IC50) was > 50 µM. Also, the IC50 in data set [2] (Homo sapiens, PC-3, 72 h) is > 50 µM. Besides, the IC50 in data set [4] (Homo sapiens, HepG2, 72 h) is > 50 µM. For the same molecule, the IC50 in data set [5] (Homo sapiens, MCF7, 72 h) was > 50 µM.
The molecule `Clc1ccc(C2=NN(c3nc(N4CCOCC4)c4c5c(sc4n3)CCCC5)C(c3ccccc3)C2)cc1Cl` (stereo not shown) [Compound 21h, 4-(2-(3-(3,4-dichlorophenyl)-5-phenyl-4,5-dihydro-1H-pyrazol-1-yl)-5,6,7,8-tetrahydrobenzo[4,5]thieno[2,3-d]pyrimidin-4-yl)morpholine] registered a melting point of 293 to 294 °C. The molecule also gave an IC50 in data set [1] of 23.5 ± 0.82 µM. Besides, the IC50 in data set [2] (Homo sapiens, PC-3, 72 h) was > 50 µM. Further, the IC50 in data set [4] (Homo sapiens, HepG2, 72 h) was > 50 µM. For the same molecule, the IC50 in data set [5] (Homo sapiens, MCF7, 72 h) is > 50 µM.
On to `CS(=O)(=O)N1CCN(Cc2cc3nc(-c4cccc5[nH]ncc45)nc(N4CCOCC4)c3s2)CC1` [GDC-0941, reference compound], for which the IC50 in data set [1] is 6.99 ± 0.21 µM; in data set [2] (Homo sapiens, PC-3, 72 h), 4.35 ± 0.33 µM; in data set [4] (Homo sapiens, HepG2, 72 h) it was 0.07 ± 0.03 µM; in data set [5] (Homo sapiens, MCF7, 72 h) it was 0.2 ± 0.08 µM.
